Like-named read-outs stand apart in the source and are kept apart here.
Legend:
TYK2 JH2 domain = TYK2 JH2 domain (Homo sapiens (Human), UniProt P29597); test: TYK2 JH2 domain FRET tracer assay; format: binding; details: FRET 665/615 nm; read-out: Inhibition activity IC50 on TYK2 JH2 domain
Procedure: Compound of the present invention formulated into different concentrations (series 3 times dilutions, started from 60 μM, 11 concentrations in total) was added to 384-well plate, followed by 5 μL of enzyme (i.e., TYK2 JH2 domain), Tb antibody (Cisbio) and tracer. The mixture was incubated at 25° C. for 60 min and left at 4° C. overnight.

[1] = test system: EPO-induced JAK2 signal pathway; test: EPO-induced proliferation of UT-7 cells (JAK2 signal); format: cell-based, human; details: Homo sapiens, UT7; UT-7 cell proliferation, EPO 10 ng/mL, 72 hours; read-out: Inhibition activity IC50 on EPO-induced JAK2 signal pathway
In short: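 […] was derived from inhibition rates across doses, scaled between wells lacking compound and cytokine (0) and EPO without compound (100), using alamarBlue fluorescence at Ex530/Em590. Compound (final 0-10000 nM) and 10 ng/mL EPO were given to UT-7 cells at 15000 per well for 72 h at 37° C.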

[2] = test system: IL-10-induced JAK1/TYK2 signal pathway; test: IL-10-induced JAK1/TYK2 signal pathway STAT3-Luc reporter gene assay in U2OS cells; format: cell-based, human; details: Homo sapiens, read-out: Half inhibition dose (IC50) on IL-10-induced JAK1/TYK2 signal pathway
In short: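 Luciferase read-out (560 nm) corrected by GFP signal (Ex485/Em520) gives IL-10 pathway activity, and IC50 is derived from inhibition rates. Cells were U2OS transfected with IL-10R1 plus STAT3-Luc reporter, pretreated 6 h with 0.1–300 nM compound, then stimulated 24 h with IL-10 at 10 ng/mL.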

[3] = test system: IL-2-induced JAK1/JAK3 signal pathway; test: IL-2-induced proliferation of KHYG-1 cells (JAK1/JAK3 signal); format: cell-based, human; details: Homo sapiens; KHYG-1 cell proliferation, IL-2 10 ng/mL, 72 hours; read-out: Inhibition activity IC50 on IL-2-induced JAK1/JAK3 signal pathway
In short: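 Controls were wells lacking both compound and cytokine (0%) and compound-free IL-2 wells (100%). C50 was calculated from inhibition rates across doses.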

[4] = U2OS, U2OS cells, STAT3-Luc reporter, IL-10 10 ng/mL

Sequence of TYK2 JH2 domain (P29597 589-875): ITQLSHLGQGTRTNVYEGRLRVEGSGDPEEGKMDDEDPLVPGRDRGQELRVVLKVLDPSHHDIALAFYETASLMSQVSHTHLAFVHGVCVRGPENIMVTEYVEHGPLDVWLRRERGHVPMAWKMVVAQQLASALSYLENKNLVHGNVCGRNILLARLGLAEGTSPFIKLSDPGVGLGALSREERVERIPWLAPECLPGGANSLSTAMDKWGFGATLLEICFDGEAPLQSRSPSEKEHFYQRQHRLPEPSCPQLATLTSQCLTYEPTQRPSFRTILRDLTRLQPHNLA

Row | Structure (SMILES) | IC50 [2, 4] [nM] | IC50 (TYK2 JH2 domain) [nM] | IC50 [1] [nM] | IC50 [3] [nM] | IC50 ([2]; U2OS cells, STAT3-Luc reporter, IL-10 10 ng/mL) [nM] | IC50 ([2]; U2OS) [nM]
1 | CCONC(=O)c1cnc(Nc2cc(C)nc(C)n2)cc1Nc1ccc(C2CC2)cc1N(C)S(C)(=O)=O [Example 21, 4-((4-cyclopropyl-2-(N-methylmethanesulfonamido)phenyl)amino)-6-((2,6-dimethylpyrimidin-4-yl)amino)-N-ethoxy nicotinamide] | 0.421 | 0.05 | > 10000 | > 10000 |  | 
2 | CCONC(=O)c1cnc(Nc2cc(C)nc(C)n2)cc1Nc1cc(F)c(C2CC2)cc1N(C)S(C)(=O)=O [Example 98] | 1.51 | 0.09 | > 10000 | > 10000 |  | 
3 | CCONC(=O)c1cnc(Nc2cc(C)nc(C)n2)cc1Nc1ccc(Cl)cc1N(C)S(C)(=O)=O [Example 115, 4-((4-chloro-2-(N-methylmethanesulfonamido)phenyl)amino)-6-((2,6-dimethylpyrimidin-4-yl)amino)-N-ethoxy nicotinamide] | 0.261 | 0.07 | > 10000 | > 10000 |  | 
4 | CCONC(=O)c1cnc(Nc2cc(C)nc(C)n2)cc1Nc1ccc(OCC)cc1N(C)S(C)(=O)=O [Example 181] | 0.56 | 0.08 | > 10000 | > 10000 |  | 
5 | CCONC(=O)c1cnc(Nc2cc(C)nc(C)n2)cc1Nc1ccc(C)nc1N(C)S(C)(=O)=O [Example 186] | 0.276 | 0.07 | > 10000 | > 10000 |  | 
6 | CCONC(=O)c1cnc(Nc2ccnc(C)n2)cc1Nc1ccc(C2CC2)cc1N(C)S(C)(=O)=O [Example 192, 4-((4-cyclopropyl-2-(N-methylmethanesulfonamido)phenyl)amino)-N-ethoxy-6-((2-methylpyrimidin-4-yl)amino)nicotinamide] | 0.458 | 0.08 | > 10000 | > 10000 |  | 
7 | CCONC(=O)c1cnc(Nc2cc(C)nc(C)n2)cc1Nc1cc(F)c(CC)cc1N(C)S(C)(=O)=O [Example 193, 6-((2,6-dimethylpyrimidin-4-yl)amino)-N-ethoxy-4-((4-ethyl-5-fluoro-2-(N-methylmethanesulfonamido)phenyl)amino)nicotinamide] | 0.647 | 0.06 | > 10000 | > 10000 |  | 
8 | CCONC(=O)c1cnc(Nc2ccnc(C)n2)cc1Nc1cc(F)c(C2CC2)cc1N(C)S(C)(=O)=O [Example 194, 4-((4-cyclopropyl-5-fluoro-2-(N-methylmethanesulfonamido)phenyl)amino)-N-ethoxy-6-((2-methylpyrimidin-4-yl)amino)nicotinamide] | 0.6 | 0.08 | > 10000 | > 10000 |  | 
9 | CCONC(=O)c1cnc(Nc2cc(C)nc(C)n2)cc1Nc1cc(F)c(Cl)cc1N(C)S(C)(=O)=O [Example 198, 4-((4-chloro-5-fluoro-2-(N-methylmethanesulfonamido)phenyl)amino)-6-((2,6-dimethylpyrimidin-4-yl)amino)-N-ethoxy nicotinamide] | 0.65 | 0.08 | > 10000 | > 10000 |  | 
10 | CCONC(=O)c1cnc(Nc2cncc(F)c2)cc1Nc1ccc(C2CC2)cc1N(C)S(C)(=O)=O [Example 236, 4-((4-cyclopropyl-2-(N-methylmethanesulfonamido)phenyl)amino)-N-ethoxy-6-((5-fluoropyridin-3-yl)amino)nicotinamide] | 0.587 |  | > 10000 | > 10000 |  | 
11 | CCONC(=O)c1cnc(NC(=O)C2CC2)cc1Nc1cccc(-c2ncc(C)cn2)c1OC [Example 239, 6-(cyclopropylcarboxamido)-N-ethoxy-4-((2-methoxy-3-(5-methylpyrimidin-2-yl)phenyl)amino)nicotinamide] | 0.289 |  | > 10000 | > 10000 |  | 
12 | CCONC(=O)c1cnc(Nc2ncc(F)cc2F)cc1Nc1cccc(-c2ncccn2)c1OC [Example 242, 6-((3,5-difluoropyridin-2-yl)amino)-N-ethoxy-4-((2-methoxy-3-(pyrimidin-2-yl)phenyl)amino)nicotinamide] |  |  | > 10000 | > 10000 | 2.12 | 
13 | CCONC(=O)c1cnc(Nc2ccnc(C)n2)cc1Nc1cccc(-c2ncc(F)cn2)c1OC [Example 243, N-ethoxy-4-((3-(5-fluoropyrimidin-2-yl)-2-methoxyphenyl)amino)-6-((2-methylpyrimidin-4-yl)amino)nicotinamide] | 0.507 |  | > 10000 | > 10000 |  | 
14 | CCONC(=O)c1cnc(Nc2cc(C)nc(C)n2)cc1Nc1cc(F)cc(-c2cnccn2)c1OC [Example 258, 6-((2,6-dimethylpyrimidin-4-yl)amino)-N-ethoxy-4-((5-fluoro-2-methoxy-3-(pyrazin-2-yl)phenyl)amino)nicotinamide] | 2.15 |  | > 10000 | > 10000 |  | 
15 | [2H]C([2H])([2H])Oc1c(Nc2cc(Nc3cc(C)nc(C)n3)ncc2C(=O)NOCC)cccc1-c1ncccn1 [Example 279, 6-((2,6-dimethylpyrimidin-4-yl)amino)-N-ethoxy-4-((2-(methoxy-d3)-3-(pyrimidin-2-yl)phenyl)amino)nicotinamide] |  |  | > 10000 | > 10000 |  | 0.529

Continued, in another order:

Row | IC50 [2, 4] [nM] | Structure (SMILES) | IC50 (TYK2 JH2 domain) [nM] | IC50 [1] [nM] | IC50 [3] [nM] | IC50 ([2]; U2OS cells, STAT3-Luc reporter, IL-10 10 ng/mL) [nM] | IC50 ([2]; U2OS) [nM]
16 | 0.368 | CCONC(=O)c1cnc(Nc2ncc(F)cc2F)cc1Nc1cc(F)cc(-c2ncc(F)cn2)c1OC [Example 234, 6-((3,5-difluoropyridin-2-yl)amino)-N-ethoxy-4-((5-fluoro-3-(5-fluoropyrimidin-2-yl)-2-methoxyphenyl)amino)nicotinamide] |  | > 10000 | > 10000 |  | 
17 | 0.722 | CCONC(=O)c1cnc(Nc2cnc(F)c(C)c2)cc1Nc1ccc(C2CC2)cc1N(C)S(C)(=O)=O [Example 235, 4-((4-cyclopropyl-2-(N-methylmethanesulfonamido)phenyl)amino)-N-ethoxy-6-((6-fluoro-5-methylpyridin-3-yl)amino)nicotinamide] |  | > 10000 | > 10000 |  | 
18 | 0.395 | CCONC(=O)c1cnc(Nc2ccc(F)nc2)cc1Nc1ccc(C2CC2)cc1N(C)S(C)(=O)=O [Example 237, 4-((4-cyclopropyl-2-(N-methylmethanesulfonamido)phenyl)amino)-N-ethoxy-6-((6-fluoropyridin-3-yl)amino)nicotinamide] |  | > 10000 | > 10000 |  | 
19 | 0.258 | CCONC(=O)c1cnc(Nc2ccnc(C)n2)cc1Nc1cccc(-c2ncc(C)cn2)c1OC [Example 240, N-ethoxy-4-((2-methoxy-3-(5-methylpyrimidin-2-yl)phenyl)amino)-6-((2-methylpyrimidin-4-yl)amino)nicotinamide] |  | > 10000 | > 10000 |  | 
20 | 2.58 | CCONC(=O)c1cnc(Nc2ncc(F)cc2F)cc1Nc1cc(F)cc(-c2ncn(C3CC3)n2)c1OC [Example 244, 4-((3-(1-cyclopropyl-1H-1,2,4-triazol-3-yl)-5-fluoro-2-methoxyphenyl)amino)-6-((3,5-difluoropyridin-2-yl)amino)-N-ethoxy nicotinamide] |  | > 10000 | > 10000 |  | 
21 | 1.92 | CCONC(=O)c1cnc(Nc2ccnc(C)n2)cc1Nc1cc(F)cc(-c2ncn(C3CC3)n2)c1OC [Example 245, 4-((3-(1-cyclopropyl-1H-1,2,4-triazol-3-yl)-5-fluoro-2-methoxyphenyl)amino)-N-ethoxy-6-((2-methylpyrimidin-4-yl)amino)nicotinamide] |  | > 10000 | > 10000 |  | 
22 | 0.315 | CCONC(=O)c1cnc(Nc2cc(C)nc(C)n2)cc1Nc1cccc(-c2ncn(C)n2)c1OC [Example 268, 6-((2,6-dimethylpyrimidin-4-yl)amino)-N-ethoxy-4-((2-methoxy-3-(1-methyl-1H-1,2,4-triazol-3-yl)phenyl)amino)nicotinamide] |  | > 10000 | > 10000 |  | 
23 | 2.19 | [2H]C([2H])([2H])Oc1c(Nc2cc(Nc3cc(C)nc(C)n3)ncc2C(=O)NOCC)cccc1-c1ncc(F)cn1 [Example 273, 6-((2,6-dimethylpyrimidin-4-yl)amino)-N-ethoxy-4-((3-(5-fluoropyrimidin-2-yl)-2-(methoxy-d3)phenyl)amino)nicotinamide] |  | > 10000 | > 10000 |  | 
